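Growth conditions: 96-well plates. Treatment: test compound, 48 hours, 5 concentrations. Analysis: linear interpolation between bracketing concentrations; unreached endpoints set to highest concentration. GI50 = concentration required for 50% inhibition of growth.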 Calls of active or inactive are those of the source. Rule as the data show it: active = GI50 up to about 1.1 µM and inactive = higher. Where a SMILES comes first, the peptide text is derived from it. [ ]: non-standard residue; d: D form. The star is where a group is joined. NMeF = CN[C@@H](Cc1ccccc1)C(=O)O; NMeV = CN[C@H](C(=O)O)C(C)C; Boc = CC(C)(C)OC(=O)*; OBn = c1ccc(CO*)cc1

Some test systems named below: SNB-75; SF-539; OVCAR-4; MDA-MB-435; KM12; LOX IMVI; HT-29; COLO 205; SK-MEL-5; EKVX; MOLT-4; UACC-62; HCC 2998; SN12C; SF-295; HOP-62; SK-MEL-28; RXF 393; SK-MEL-2; MDA-N.
Common to all, as to assay: NCI tumour cell line growth inhibition, 48 h

With `CC(C)[C@@H](C(=O)N1CCC[C@H]1C(=O)OCc1ccccc1)N(C)C(=O)[C@H](C(C)C)N(C)C(=O)[C@H](Cc1ccccc1)N(C)C(=O)[C@H](NC(=O)OC(C)(C)C)C(C)C` (Boc-[dV][NMeF][NMeV][NMeV]P-OBn), the GI50 with SNB-75, with SF-539, in the assay with OVCAR-4, in the assay with MDA-MB-435, with KM12 and with LOX IMVI was > 50 µM (inactive) in each case. For the same compound, the GI50 in the assay on HT-29, in the assay on COLO 205, with SK-MEL-5, in the assay on EKVX, with MOLT-4 and in the assay on UACC-62 was > 50 µM (inactive) throughout. Also, the GI50 in the assay with HCC 2998, in the assay on SN12C, with SF-295, in the assay on HOP-62, in the assay on SK-MEL-28 and with RXF 393 was > 50 µM (inactive) throughout. Also, the GI50 in the assay on SK-MEL-2 was > 50 µM (inactive).
As for `C/C(=C\COP(=O)(O)CP(=O)(O)O)CC/C=C(\C)CNc1ccccc1`, the GI50 in the assay with SNB-75, in the assay with SF-539, in the assay on MDA-MB-435, with KM12, in the assay on LOX IMVI and in the assay with HT-29 was > 100 µM (inactive) in each case. For the same compound, the GI50 in the assay on COLO 205 was > 100 µM (inactive); with SK-MEL-5, > 100 µM (inactive); with EKVX it was 15.7 µM (inactive); with MOLT-4, > 100 µM (inactive); in the assay on UACC-62, > 100 µM (inactive); in the assay on SN12C, > 100 µM (inactive). Moreover, the GI50 with SF-295, in the assay with HOP-62, with SK-MEL-28, in the assay on RXF 393 and in the assay with SK-MEL-2 was > 100 µM (inactive) each time.
`Cc1nc2ccc(S(=O)(=O)O)cc2c(=O)n1-c1ccc(C(=O)NN2C(=O)C(Cl)C2c2ccccc2O)cc1` (stereo unspecified): the GI50 is > 100 µM (inactive) in the assay with SNB-75; 92.3 µM (inactive) in the assay on SF-539; > 100 µM (inactive) in the assay on OVCAR-4; > 100 µM (inactive) in the assay with MDA-MB-435; > 100 µM (inactive) with KM12; > 100 µM (inactive) with LOX IMVI. The GI50 with HT-29 is > 100 µM (inactive); in the assay on COLO 205, > 100 µM (inactive); with SK-MEL-5 it was > 100 µM (inactive); with EKVX, 60.1 µM (inactive); in the assay with MOLT-4 it was > 100 µM (inactive); with MDA-N it was > 100 µM (inactive). Also, the GI50 with SN12C was > 100 µM (inactive); with SF-295, > 100 µM (inactive); with HOP-62, 53.5 µM (inactive); with SK-MEL-28, > 100 µM (inactive); with RXF 393, > 100 µM (inactive); in the assay with SK-MEL-2 it was > 100 µM (inactive).
Take `O=C1CC[C@@]23CC(=O)O[C@@H]2CCCC3C1` (stereo partly specified): the GI50 in the assay on SNB-75, in the assay on SF-539, in the assay with OVCAR-4, in the assay with KM12, in the assay with LOX IMVI and in the assay on HT-29 was > 100 µM (inactive) each time. Further, the GI50 in the assay with COLO 205, with SK-MEL-5, with EKVX, in the assay on MOLT-4, in the assay on UACC-62 and with HCC 2998 was > 100 µM (inactive) each time. Further, the GI50 is > 100 µM (inactive) in the assay on MDA-N; > 100 µM (inactive) with SN12C; > 100 µM (inactive) in the assay on SF-295; > 100 µM (inactive) in the assay on HOP-62; > 100 µM (inactive) in the assay with SK-MEL-28; 18.5 µM (inactive) in the assay with RXF 393. In addition, the GI50 in the assay on SK-MEL-2 was > 100 µM (inactive).
`CCOC(=O)C(C(=S)Nc1ccccc1)c1nn2c(=O)cc(C)nc2s1` (stereo unspecified): the GI50 is 16.9 µM (inactive) with SNB-75; 22.9 µM (inactive) with SF-539; 30.8 µM (inactive) in the assay with OVCAR-4; 20.9 µM (inactive) in the assay on MDA-MB-435; 25.4 µM (inactive) with KM12; 14.4 µM (inactive) in the assay on LOX IMVI. The GI50 in the assay on HT-29 was 19.3 µM (inactive); with COLO 205, 20.1 µM (inactive); in the assay on SK-MEL-5 it was 23.1 µM (inactive); in the assay on EKVX, 21.6 µM (inactive); in the assay with MOLT-4, 25 µM (inactive); in the assay with UACC-62 it was 23.7 µM (inactive). Moreover, the GI50 with HCC 2998 was 25.1 µM (inactive); in the assay with SN12C, 36.7 µM (inactive); in the assay on SF-295, 32.4 µM (inactive); with HOP-62 it was 65 µM (inactive); in the assay with SK-MEL-28, 21.1 µM (inactive); with RXF 393, 39.1 µM (inactive). In addition, the GI50 with SK-MEL-2 was 36.2 µM (inactive).
`COC(=O)c1ccc(Oc2nc3ccccc3nc2-c2cccs2)cc1`: the GI50 is 7.83 µM (inactive) in the assay with SNB-75; 5.71 µM (inactive) in the assay on SF-539; > 100 µM (inactive) in the assay with OVCAR-4; > 100 µM (inactive) in the assay with MDA-MB-435; > 100 µM (inactive) in the assay on KM12; > 100 µM (inactive) with LOX IMVI. Moreover, the GI50 in the assay on HT-29 is > 100 µM (inactive); in the assay with COLO 205, > 100 µM (inactive); in the assay on SK-MEL-5 it was > 100 µM (inactive); in the assay with EKVX, > 100 µM (inactive); with MOLT-4, > 100 µM (inactive); with UACC-62 it was 40.6 µM (inactive). The GI50 with MDA-N was > 100 µM (inactive); in the assay on SN12C it was > 100 µM (inactive); in the assay on SF-295 it was 18.7 µM (inactive); with HOP-62, 11.9 µM (inactive); in the assay with SK-MEL-28 it was > 100 µM (inactive); in the assay on RXF 393, 4.79 µM (inactive). Moreover, the GI50 with SK-MEL-2 is > 100 µM (inactive).
As to `C/C(=N\NC(=S)N1CCCCCC1)c1cccc2cccnc12`, the GI50 is 23 µM (inactive) in the assay with SNB-75; 0.845 µM (active) in the assay with SF-539; 1.71 µM (inactive) in the assay with MDA-MB-435; 1.42 µM (inactive) in the assay on KM12; 0.767 µM (active) with LOX IMVI; 1.4 µM (inactive) with HT-29. For the same compound, the GI50 in the assay with COLO 205 was 0.459 µM (active); with EKVX, 1.29 µM (inactive); in the assay with MOLT-4 it was 0.134 µM (active); in the assay on HCC 2998 it was 2.76 µM (inactive); with SF-295 it was 0.271 µM (active); with HOP-62, 1.15 µM (inactive). Also, the GI50 with SK-MEL-28 was 1.77 µM (inactive); with RXF 393 it was > 26.4 µM (inactive); with SK-MEL-2, 19.5 µM (inactive).
Turning to `Oc1cccc(-c2cc(=S)ss2)c1`, the GI50 is 19.5 µM (inactive) with SF-539; 18.6 µM (inactive) with OVCAR-4; 20.5 µM (inactive) in the assay on MDA-MB-435; 18.6 µM (inactive) in the assay on KM12; 14.8 µM (inactive) in the assay with LOX IMVI; 24.7 µM (inactive) in the assay on HT-29. Further, the GI50 in the assay on COLO 205 is 18.4 µM (inactive); in the assay on SK-MEL-5, 5.97 µM (inactive); in the assay on EKVX, 16.1 µM (inactive); in the assay with MOLT-4, 3.22 µM (inactive); in the assay with UACC-62, 18.5 µM (inactive); with HCC 2998, 17.7 µM (inactive). Besides, the GI50 is 20.2 µM (inactive) with SN12C; 14.3 µM (inactive) in the assay on SF-295; 17.6 µM (inactive) in the assay with HOP-62; 19.7 µM (inactive) in the assay with SK-MEL-28; 18 µM (inactive) in the assay with RXF 393; 15.6 µM (inactive) in the assay with SK-MEL-2.
As for `CC(C)c1ccc2nc3ccc(C(=O)NCCN(C)C)cn3c(=O)c2c1`, the GI50 with SNB-75 is 10.4 µM (inactive); with SF-539, 14.9 µM (inactive); in the assay with OVCAR-4, 24.7 µM (inactive); in the assay with KM12, 17.3 µM (inactive); with HT-29, 7.74 µM (inactive); in the assay with COLO 205, 16.2 µM (inactive). Further, the GI50 in the assay with SK-MEL-5 was 12.4 µM (inactive); in the assay on EKVX, 16.4 µM (inactive); in the assay on MOLT-4, 15 µM (inactive); in the assay on UACC-62, 16.6 µM (inactive); with HCC 2998, 14.1 µM (inactive); with MDA-N, 16.4 µM (inactive). Also, the GI50 in the assay on SN12C was 14.8 µM (inactive); in the assay with SF-295, 10.9 µM (inactive); with HOP-62 it was 15.3 µM (inactive); with SK-MEL-28, 16.5 µM (inactive).
In the case of `O=c1sc(-c2nc3ccccc3[nH]2)c(/N=C/c2ccccc2)n1-c1ccccc1`, the GI50 in the assay with SNB-75 is 21.6 µM (inactive); with SF-539 it was 26.3 µM (inactive); in the assay on OVCAR-4, 6.12 µM (inactive); in the assay with KM12 it was 73.3 µM (inactive); in the assay with LOX IMVI, 40.3 µM (inactive); with HT-29, > 100 µM (inactive). For the same compound, the GI50 was 56.4 µM (inactive) with COLO 205; 29.9 µM (inactive) in the assay on SK-MEL-5; > 100 µM (inactive) in the assay with EKVX; > 100 µM (inactive) in the assay with MOLT-4; 52.5 µM (inactive) in the assay with UACC-62; > 100 µM (inactive) in the assay with HCC 2998. Further, the GI50 is 73.3 µM (inactive) in the assay on SN12C; 40.9 µM (inactive) with SF-295; 27.9 µM (inactive) with HOP-62; > 100 µM (inactive) with SK-MEL-28; 62.4 µM (inactive) in the assay with RXF 393; 63 µM (inactive) in the assay on SK-MEL-2.
Turning to `O=C(NN1C(=O)C(Cl)C1c1ccc(Cl)cc1)c1c(Cl)c(Cl)c(Cl)c(Cl)c1-c1nc2ccccc2[nH]1` (stereo unspecified), the GI50 was 19.2 µM (inactive) in the assay with SNB-75; 32.4 µM (inactive) in the assay with SF-539; 20.1 µM (inactive) in the assay with MDA-MB-435; 31.4 µM (inactive) in the assay on KM12; 16.5 µM (inactive) in the assay with LOX IMVI; 25.2 µM (inactive) with HT-29. The GI50 with COLO 205 was 18.3 µM (inactive); with SK-MEL-5, 26.4 µM (inactive); in the assay on EKVX it was 20.7 µM (inactive); in the assay with MOLT-4, 7.33 µM (inactive); in the assay with UACC-62, 15.7 µM (inactive); in the assay with HCC 2998, 15.1 µM (inactive). In addition, the GI50 is 23 µM (inactive) with SN12C; 23.9 µM (inactive) in the assay on SF-295; 40.2 µM (inactive) with HOP-62; 16.9 µM (inactive) with SK-MEL-28; 2.23 µM (inactive) with RXF 393; 21.8 µM (inactive) in the assay on SK-MEL-2.

The values above are taken from ChEMBL document CHEMBL1201862, “PubChem BioAssay data set” (2004).
